Laboratory results: patent US12298308B2, “Neoadjuvant chemotherapy induces breast cancer metastasis through a TMEM-mediated mechanism” (Albert Einstein College of Medicine, priority 2017, dated 2025)

Assays:
breast tumors = assay: Tumor growth in mouse breast carcinoma models; type: in vivo; settings: 10 mg/Kg paclitaxel every five days, three times; vs non-treated controls
Excerpt: (§1) Herein, the possibility was examined that neoadjuvant paclitaxel promotes TMEM assembly and cancer cell dissemination and metastasis. This hypothesis was investigated in the following breast carcinoma models: (i) transgenic MMTV-PyMT mice bearing spontaneous breast tumors, (ii) FVB mice transplanted orthotopically with tumors from MMTV-PyMT donors, and (iii) two patient-derived xenografts (PDX), HT17 and HT33, developed previously in our laboratory (31). […] Treatment of all groups began at the early carcinoma stage (tumor size of ˜0.3 cm) when there is minimal or absent necrosis. It was decided to work with the early-stage PyMT mouse mammary carcinoma model because it more accurately reflects clinically relevant scenarios where most women present with small tumors of <2 cm (32). At the end of treatment all tumors were histologically classified as invasive carcinomas.
(§2) Drug Administration. The following drugs were administered in mice: Paclitaxel was given at 10 mg/Kg i.v every 5 days for 2 weeks; Doxorubicin was given at 5 mg/Kg i.v. every 5 days for 2 weeks; Cyclophosphamide was given at 120 mg/Kg i.p. only once; Rebastinib was given at 10 mg/Kg per os, every 3-4 days for 4 weeks.
Animals and Animal Procedures. MMTV-PyMT mice were bred in-house at the Albert Einstein College of Medicine (AECOM). Generation of MMTV-PyMT Mena^−/− has been described previously (28). […]

TMEM = TMEM score by triple-stain immunohistochemistry in mouse breast tumors; type: in vivo
Excerpt: as §1, with “This” for “Herein, the possibility was examined that neoadjuvant paclitaxel promotes TMEM assembly and cancer cell dissemination and metastasis. This”, “(32).” for “(32). At the end of treatment all tumors were histologically classified as invasive carcinomas.”
as §2
(§3) Animals and Animal Procedures. MMTV-PyMT mice were bred in-house at the Albert Einstein College of Medicine (AECOM). Generation of MMTV-PyMT Mena^−/− has been described previously (28). CFP- or Dendra2-labeled mammary carcinoma cells were generated on the FVB background by co-injection of Tg(MMTV-iCRE)1jwp together with Tg(PCAG-loxp-CATstop-loxp-CFP) or Tg(loxP-stop-loxP-PDendra2)jwp plasmids, respectively, by conventional methods in the Albert Einstein Transgenic Mouse Facility. All syngeneic transplantation models were generated through orthotopic transplantation of 1 mm×1 mm tumor chunks, using tumors of 1 cm-diameter from 12-16-week old MMTV-PyMT mena−/− or mena+/+ donor mice into 5-6 week-old FVB recipients. Tumor chunks were implanted on the fourth mammary pad on the left side. The generation of the ER^− HT17 and ER^+ HT33 patient-derived xenografts has been described previously (31). Animal handling and associated procedures were approved by the Institutional Animal Care and Use Committee (IACUC). Additional information is detailed in Supplementary Methods.
Histology and TMEM Immunohistochemistry. Breast tumors and lungs were isolated, rinsed in PBS, fixed in 10% neutral buffered formalin for 48 hours, dehydrated and embedded in paraffin. Sections (5 μm) were stained with H & E or TMEM triple-stain immunohistochemistry, as previously described (3).

[1] = test system: Tie2^hi/Vegf^hi macrophages; assay: Macrophage infiltration by multi-channel immunofluorescence (Iba1, Cd31, Tie2, Vegf); type: in vivo, mouse
Excerpt: The functional TMEM sites contain Tie2^hi/Vegf^hi macrophages and invasive tumor cells in perivascular regions (1), and it was independently shown that chemotherapy may promote mobilization of such Tie2^hi monocyte progenitors in primary tumors (8, 10). The Tie2^hi/Vegf^hi macrophage subpopulation was quantified herein using multi-channel immunofluorescence (IF) imaging (FIGS. 1D-F) (10, 14, 34). FIG. 1E illustrates a representative IF image of a Tie2^hi/Vegf^hi macrophage quantified using Cd31, Iba1, Vegf and Tie2 staining.
as §2, §3
Immunofluorescence. Slides were deparaffinized by melting at 60° C. in an oven equipped with a fan for 20 minutes, followed by 2× xylene treatment for 20 minutes. Slides were rehydrated and antigen retrieval was done in 1 mM EDTA (pH 8.0) or 1× citrate buffer (pH 6.0) (Diagnostic BioSystems) at 97° C. for 20 minutes in a conventional steamer. Endogenous peroxidase was blocked by using 0.3% hydrogen peroxide in water, followed by incubation of slides in a blocking buffer solution (10% FBS, 1% BSA, 0.0025% fish skin gelatin in 0.05% PBST) for 60 minutes at room temperature. The following primary antibodies were used in different combinations, depending on the experiment: chicken anti-Mena^INV (0.25 ug/mL, generated in-house in the lab of John S. Condeelis), rabbit anti-Cd31 (1:400; 77699s; Cell Signaling), rabbit anti-Vegf (1:2,000; Rb 9031-PO-A; Thermo), rat anti-Tie2 (1:100; 16-5987-82; eBioscience), rabbit anti-Iba1 (1:6,000; 019-19741; Wako), rat anti-endomucin (1:500; sc-65495; Santa Cruz), rabbit anti-TMR (1:1,000; A-6397; Life Technologies). Secondary antibody treatment was performed using HRP-conjugated antibodies, and was followed by tyramide signal amplification (TSA), using the Perkin Elmer; Opal™ 4-color Fluorescent IHC kit, according to the manufacturer's directions. All slides were imaged on the Pannoramic 250 Flash II digital whole slide scanner, using a 20×0.75NA objective lens. Image analysis was performed in ImageJ, detailed in Supplementary Methods.

[2] = single agent vs vehicle, PyMT-transplantation and HT17 xenograft
[3] = Mena^-/- PyMT-CFP transplanted tumors

CC(=O)O[C@H]1C(=O)[C@@]2(C)[C@H]([C@H](OC(=O)c3ccccc3)[C@]3(O)C[C@H](OC(=O)[C@H](O)[C@@H](NC(=O)c4ccccc4)c4ccccc4)C(C)=C1C3(C)C)[C@]1(OC(C)=O)CO[C@@H]1C[C@@H]2O [paclitaxel]
tumor growth (breast tumors): delayed tumor growth | TMEM score, fold higher compared to non-treated controls (TMEM; all experimental models tested, 10 mg/Kg every five days, three times, p<0.001): 2- to 3 fold | overall TMEM score (TMEM assembly) (TMEM; [2]): significant increases | absolute number of Iba1^+ cells ([1]; HT17-xenograft, entire tissue or perivascular niche, p<0.001): significantly increased | perivascular Iba1^+ macrophage infiltration [1, 3]: increased | perivascular Tie2^hi/Vegf^hi Iba1^+ macrophage infiltration [1, 3]: increased | perivascular Tie2^hi/Vegf^hi macrophage subpopulation ([1]; PyMT-spontaneous model): significant increase | percentage of macrophage-specific Iba1^+ area ([1]; all transplantation models, p<0.01): significant increase | proportion of Tie2^hi/Vegf^hi macrophages among all Iba1^+ cells ([1]; paclitaxel treatment): increased | density of perivascular Tie2^hi/Vegf^hi macrophages [1, 2]: significant increases | density of Tie2^hi/Vegf^hi macrophages ([1]; vs vehicle-treated controls, entire tissue or perivascular niches, p<0.001): significantly higher
